According to patent US4714619A, “Aminomalonyl alanine compounds as dietary sweeteners” (priority 1986, dated 1987):
“Also recorded” adds a separate entry of the source. Like-named read-outs stand apart in the source and are kept apart here. Where a SMILES comes first, the peptide text is derived from it.

How the values were obtained:
[1] = Taste panel (Table 1, FIG. 2); conditions: for After Taste? (average score) / Bitter? (average score) / Off Taste? (average score) / Pleasant? (average score) / Salty? (average score) / Sweet? (average score): normalized to 100; for sweetness potency (reciprocal of concentration required for a score of 50): sucrose=1.0, weight scale
[2] = Acute oral toxicity testing; format: in vivo, Swiss male mice
Experimental: The isopropyl ester was evaluated for acute oral toxicity in Swiss male mice. The testing parameters were as follows: each test group contained six mice (20-30 grams each); the isopropyl ester was administered in an aqueous solution as a single oral dose of 100 mg/kg and 300 mg/kg; two solvent controls were also administered; the mice were again given food two hours after sample administration.
Body weights were measured on day -3, 0, +7 and +14. Physiological parameters were examined the entire first day, then three times a day through the first week and twice a day for the second week. Blood serum analyses for urea nitrogen and alanine aminotransferase activities were measured on day -3 and day +14. On day 14, a gross necropsy was performed on each mouse.
Blood samples were collected from the tail vein for biochemical testing of serum samples. This procedure virtually eliminated hemolyzed samples.

[3] = Stability in aqueous solution (hplc, ambient temperature); format: physicochemical
Experimental: Stability was examined in aqueous solution at various pHs. Solutions (1% w/v) were prepared in 0.05M phosphate buffer adjusted to pH 7.4 and pH 3.5. Storage at ambient temperature over 36 days was monitored by hplc analysis (waters radial-pak reverse phase C-8 column, 25% CH3 CN, 0.05% TFA/H2 O eluant, 210 nm U.V. detection). Aspartame was examined similarly for comparison purposes.

[4] = Comparative taste test, D- versus L-configuration (Table 2, FIG. 3); design: Sweet? (average score) / Bitter? (average score) / Salty? (average score) / Off Taste? (average score) / After Taste? (average score): scale not given here
Experimental: The compounds were dissolved in distilled water at the concentrations specified in Table 2. Solutions were made up and kept overnight in a refrigerator. The following day, they were poured into individual graduated plastic cups (10 ml per cup) and allowed to warm to room temperature. A taste panel was convened and testing begun that same day. Tasting and evaluation was done by the standard protocol developed by Dr. Robert Gesteland of Taste and Smell Consulting Group, Inc.
The first solution tasted (reference standard for the panel) was 0.25M sucrose. Other solutions were tasted in radomized fashion. The random order was arrived at as follows:
i. An ordered list of the compounds and concentrations was prepared (26 solutions in all).
ii. 0.25M sucrose was designated as 1.
iii. A standard table of random numbers was used in which the numbers were grouped as two-digit numbers. A point in the table was chosen at random (blind pointing). The first solution in the list was given the first random number in the sequence (read right-to-left, up-to-down) which is between 2 and 26. The second solution in the list was given the next random number in the sequence between 2 and 26, etc. Repeat numbers were ignored.
iv. Solutions were then labeled A (for number 1) B (for random number 2), C-Z.
v. Panelists were instructed to taste the solutions in alphabetical order.
With the assistance of Taste and Smell Consulting Group, Inc., taste panel members were trained adn tested for their ability to discriminate sucrose solutions of varying concentrations. In summary it may be stated that all 9 panel members had acceptble correlation scores. Their results were in good agreement with those which have been previously reported in siilar types of studies. For the test series the correlations for each panelist for sucrose and aspartame were acceptable as were the overall results obtained by averaging individual scores. The results of the taste panel are set forth in Table 2 wherein the parenthetical figures represent the standard error values for the number above.

five Salmonella strains = assay: Ames/Salmonella mutagenicity assay; format: cell-based; conditions: 0.3-3000 ug/plate, with and without S9; toxicity at the two highest doses
Experimental: The isopropyl ester was tested for mutuagenic potential in the Ames assay employing: (1) five Salmonella strains which detect frameshift mutagens or base-pair substitution mutagens, (2) both the presence and absence of mammalian S9 microsomal liver fraction as the metabolic activator, which differentiate promutagens from direct-acting mutagens, (3) five dose levels (3000, 300, 30, 3, 0.3 ug/plate), and (4) three plates per dose. The compound was also tested for toxicity, with and without S9 activation, at the two highest doses. […] Positive controls and spontaneous background revertants were within acceptable ranges.

[5] = neonatal mice; cited from earlier work
[6] = cited from earlier work
[7] = monkeys; cited from earlier work
[8] = single oral dose 100 and 300 mg/kg, 14 days
[9] = 0.05m phosphate buffer, pH 3.5, 36 days, ambient temperature, read-out: degradation

Compound: CC(C)OC(=O)[C@@H](C)NC(=O)C(N)C(=O)O (mixture of isomers) [Compound (8), DL-Aminomalonyl-D-Alanine Isopropyl Ester]
- After Taste? (average score) ([1]; 0.8621 Millimolar): 4
- Bitter? (average score) ([1]; 0.8621 Millimolar): 7
- Off Taste? (average score) ([1]; 0.8621 Millimolar): 13
- Pleasant? (average score) ([1]; 0.8621 Millimolar): -11
- Salty? (average score) ([1]; 0.8621 Millimolar): 21
- Sweet? (average score) ([1]; 0.8621 Millimolar): 4
- After Taste? (average score) ([1]; 3.0172 Millimolar): 6
- Bitter? (average score) ([1]; 3.0172 Millimolar): 3
- Off Taste? (average score) ([1]; 3.0172 Millimolar): 2
- Pleasant? (average score) ([1]; 3.0172 Millimolar): 13
- Salty? (average score) ([1]; 3.0172 Millimolar): 5
- Sweet? (average score) ([1]; 3.0172 Millimolar): 32
- After Taste? (average score) ([1]; 9.0517 Millimolar): 4
- Bitter? (average score) ([1]; 9.0517 Millimolar): 1
- Off Taste? (average score) ([1]; 9.0517 Millimolar): 3
- Pleasant? (average score) ([1]; 9.0517 Millimolar): 34
- Salty? (average score) ([1]; 9.0517 Millimolar): 3
- Sweet? (average score) ([1]; 9.0517 Millimolar): 61
- aftertaste / side tastes ([1]; compared to saccharin): does not possess a "metallic" aftertaste, and there are virtually no detracting side tastes
- sweetness potency (reciprocal of concentration required for a score of 50) [1]: 58
- onset and decay of sweet taste ([1]; taste panel): rapid onset and a rapid decay of sweet taste
- taste quality ([1]; taste panel): uncommon sucrose-like sweet taste that is free of detracting side and after tastes; also recorded: sweet and pleasant
- sweetness relative to aspartame ([1]; weight basis): about half as sweet as aspartame
- times sweeter than sucrose ([1]; weight basis): 58 times
- gross necropsy ([2]; day 14, 100 and 300 mg/kg oral): No toxic effects were detected
- kidney and liver toxicity ([2]; from serum urea nitrogen and alanine aminotransferase, 100 and 300 mg/kg oral): absence of kidney and liver toxicity
- serum urea nitrogen and alanine aminotransferase activity ([2]; post-study samples, 100 or 300 mg/kg oral): Neither elevated serum urea nitrogen nor elevated alanine aminotransferase activity were detected
- behavioral or pharmacological effects ([2]; single oral dose 100 and 300 mg/kg): no behavioral or pharmacological effects were observed
- body weights ([2]; single oral dose 100 and 300 mg/kg, 14-day study): normal
- acute oral toxicity [2, 8]: no toxic effect; also recorded: nontoxic at all doses tested
- eating or drinking [2, 8]: no excessive eating or drinking
- degraded at 864 h [3, 9]: < 5%
- degraded at 864 h ([3]; 0.05m phosphate buffer, pH 7.4 buffer, 36 days, ambient temperature, read-out: degradation): 70%
- improvement in stability relative to aspartame ([3]; pH 3.5, 36 days): ten fold improvement in stability
- sweet taste (words) [4]: sweet
- After Taste? (average score) ([4]; 0.0431 Millimolar): 0
- Bitter? (average score) ([4]; 0.0431 Millimolar): 1
- Off Taste? (average score) ([4]; 0.0431 Millimolar): 2
- Pleasant? (average score) ([4]; 0.0431 Millimolar): 15
- Salty? (average score) ([4]; 0.0431 Millimolar): 1
- Sweet? (average score) ([4]; 0.0431 Millimolar): 2
- After Taste? (average score) ([4]; 0.4307 Millimolar): 7
- Bitter? (average score) ([4]; 0.4307 Millimolar): 12
- Off Taste? (average score) ([4]; 0.4307 Millimolar): 8
- Pleasant? (average score) ([4]; 0.4307 Millimolar): 10
- Salty? (average score) ([4]; 0.4307 Millimolar): 11
- Sweet? (average score) ([4]; 0.4307 Millimolar): 1
- After Taste? (average score) ([4]; 4.3066 Millimolar): 5
- Bitter? (average score) ([4]; 4.3066 Millimolar): 0
- Off Taste? (average score) ([4]; 4.3066 Millimolar): 3
- Pleasant? (average score) ([4]; 4.3066 Millimolar): 24
- Salty? (average score) ([4]; 4.3066 Millimolar): 12
- Sweet? (average score) ([4]; 4.3066 Millimolar): 28
- mutagenic potential and toxicity in Ames assay (five Salmonella strains): neither mutagenic potential nor toxicity

Compound: COC(=O)[C@H](Cc1ccccc1)NC(=O)[C@@H](N)CC(=O)O [Aspartame, methyl ester of L-α-Aspartyl-L-phenylalanine] (HELM PEPTIDE1{D.F.[CO[*:1]]}$$$$V2.0)
- After Taste? (average score) ([1]; 0.3392 Millimolar): 1
- Bitter? (average score) ([1]; 0.3392 Millimolar): 0
- Off Taste? (average score) ([1]; 0.3392 Millimolar): 1
- Pleasant? (average score) ([1]; 0.3392 Millimolar): 4
- Salty? (average score) ([1]; 0.3392 Millimolar): 1
- Sweet? (average score) ([1]; 0.3392 Millimolar): 15
- After Taste? (average score) ([1]; 1.0194 Millimolar): 2
- Bitter? (average score) ([1]; 1.0194 Millimolar): 0
- Off Taste? (average score) ([1]; 1.0194 Millimolar): 4
- Pleasant? (average score) ([1]; 1.0194 Millimolar): 15
- Salty? (average score) ([1]; 1.0194 Millimolar): 3
- Sweet? (average score) ([1]; 1.0194 Millimolar): 27
- After Taste? (average score) ([1]; 3.3979 Millimolar): 26
- Bitter? (average score) ([1]; 3.3979 Millimolar): 4
- Off Taste? (average score) ([1]; 3.3979 Millimolar): 2
- Pleasant? (average score) ([1]; 3.3979 Millimolar): 26
- Salty? (average score) ([1]; 3.3979 Millimolar): 2
- Sweet? (average score) ([1]; 3.3979 Millimolar): 68
- After Taste? (average score) ([1]; 10.1937 Millimolar): 34
- Bitter? (average score) ([1]; 10.1937 Millimolar): 0
- Off Taste? (average score) ([1]; 10.1937 Millimolar): 4
- Pleasant? (average score) ([1]; 10.1937 Millimolar): 9
- Salty? (average score) ([1]; 10.1937 Millimolar): 1
- Sweet? (average score) ([1]; 10.1937 Millimolar): 83
- sweetness potency (reciprocal of concentration required for a score of 50) [1]: 126
- taste quality ([1]; taste panel): sweet and pleasant
- degraded at 864 h [3, 9]: > 50%
- degraded at 216 h ([3]; 0.05m phosphate buffer, pH 7.4 buffer, 9 days, ambient temperature, read-out: degradation): 100%
- After Taste? (average score) ([4]; 0.3398 Millimolar): 1
- Bitter? (average score) ([4]; 0.3398 Millimolar): 1
- Off Taste? (average score) ([4]; 0.3398 Millimolar): 1
- Pleasant? (average score) ([4]; 0.3398 Millimolar): 16
- Salty? (average score) ([4]; 0.3398 Millimolar): 0
- Sweet? (average score) ([4]; 0.3398 Millimolar): 9
- After Taste? (average score) ([4]; 1.0194 Millimolar): 7
- Bitter? (average score) ([4]; 1.0194 Millimolar): 3
- Off Taste? (average score) ([4]; 1.0194 Millimolar): 6
- Pleasant? (average score) ([4]; 1.0194 Millimolar): 8
- Salty? (average score) ([4]; 1.0194 Millimolar): 10
- Sweet? (average score) ([4]; 1.0194 Millimolar): 27
- After Taste? (average score) ([4]; 3.3979 Millimolar): 16
- Bitter? (average score) ([4]; 3.3979 Millimolar): 2
- Off Taste? (average score) ([4]; 3.3979 Millimolar): 12
- Pleasant? (average score) ([4]; 3.3979 Millimolar): 22
- Salty? (average score) ([4]; 3.3979 Millimolar): 3
- Sweet? (average score) ([4]; 3.3979 Millimolar): 66
- After Taste? (average score) ([4]; 10.1937 Millimolar): 22
- Bitter? (average score) ([4]; 10.1937 Millimolar): 5
- Off Taste? (average score) ([4]; 10.1937 Millimolar): 17
- Pleasant? (average score) ([4]; 10.1937 Millimolar): 12
- Salty? (average score) ([4]; 10.1937 Millimolar): 0
- Sweet? (average score) ([4]; 10.1937 Millimolar): 64

Compound: N[C@@H](CC(=O)O)C(=O)O [aspartic acid]
- brain lesions [5]: causes brain lesions in neonatal mice

Compound: N[C@@H](Cc1ccccc1)C(=O)O [phenylalanine]
- behavioral changes and brain chemistry ([6]; in vivo): induce behavioral changes, and alter brain chemistry
- birth defects ([6]; pregnant women with phenylketonuria): produce birth defects in pregnant women with phenylketonuria
- grand mal-type seizures [7]: reported to induce grand mal-type seizures in monkeys
